Test results reported in patent US9814724B2, “Antitumor effect potentiator and antitumor agent” (TAIHO PHARMACEUTICAL CO., LTD., priority 2003, dated 2017).

How the values were obtained:
[1] = test system: human colon cancer cell line KM20C; experiment: Effect of folinate dosage on the antitumor effect on implanted KM20C tumor in nude mice, 14-day oral dosing (Example 3); assay type: in vivo, male nude mice (BALB/cA-nu); conditions: for enhancement of the antitumor effect of the tegafur/gimeracil/oteracil potassium combined drug: KM20C
Method: The ratio of the tumor volume 15 days after grouping to the tumor volume upon grouping was calculated to obtain a relative tumor volume. The tumor growth inhibition ratio (%) was determined using the relative tumor volumes of the drug-administered groups and the control group.

[2] = test system: human colon cancer cell line KM20C; experiment: Antitumor effect on subcutaneously implanted KM20C tumor in nude mice, 9-day oral dosing (Example 1); assay type: in vivo, male nude mice BALB/c-nu/nu; conditions: folinic acid 20.0 mg/kg/day (given as calcium folinate), alone or with tegafur+gimeracil+oteracil potassium 8.3+2.4+8.1 mg/kg/day or tegafur+uracil 20.0+44.8 mg/kg/day, oral once a day for 9 days, 10 days after grouping
Method: The ratio of the tumor volume 10 days after grouping to the tumor volume upon grouping was calculated to obtain a relative tumor volume. The tumor growth inhibition ratio (%) was determined using the relative tumor volumes of the drug-administered groups and the control group.

[3] = Body weight change as parameter of whole-body toxicity (Example 3); conditions: folinic acid 20.0 mg/kg/day (as calcium folinate), alone or with tegafur+gimeracil+oteracil potassium 5.7+1.7+5.6 mg/kg/day, oral once a day for 14 days; 15 days after beginning of administration
Source text: A cubic fragment measuring about 2 mm in diameter of the human colon cancer cell line KM20C was subcutaneously implanted on the backs of male nude mice (BALB/cA-nu). When the average tumor volume (=major axis (mm)×minor axis (mm)^2) reached about 200 mm^3, the mice were divided into groups.
A combined drug containing a tegafur/gimeracil/oteracil potassium combined drug (molar ratio of tegafur:gimeracil oteracil potassium=1:0.4:1) and calcium folinate, dissolved or suspended in a 0.5% hydroxypropylmethyl cellulose (HPMC) solution was orally administered to the mice once a day in amounts as shown in Table 3 for 14 consecutive days from the day after grouping.
The body weight change was calculated by subtracting the body weight of mice 15 days after the beginning of administration from the body weight of mice upon grouping used as a parameter of whole-body toxicity of the pharmaceutical preparation. Although calcium folinate was used in the experiment, the dosage given in the table is that calculated as the amount of folinic acid.

[4] = test system: human colon cancer cell line Colon 38; experiment: Antitumor effect on subcutaneously implanted Colon 38 tumor in mice, 9-day oral dosing (Example 2); assay type: in vivo, male mice C57BL/6; conditions: folinic acid 40.0 mg/kg/day (given as calcium folinate), alone or with tegafur+gimeracil+oteracil potassium 8.7+2.5+8.5 mg/kg/day or tegafur+uracil 15.1+33.8 mg/kg/day, oral once a day for 9 days; 12 days after grouping, vs control group
Method: (§1) The ratio of the tumor volume 12 days after grouping to the tumor volume upon grouping was calculated to obtain a relative tumor volume. The tumor growth inhibition ratio (%) was determined using the relative tumor volumes of the drug-administered groups and the control group.

[5] = as above; assay type: in vivo, male mice C57BL/6; conditions: folinic acid 40.0 mg/kg/day (given as calcium folinate), alone or with tegafur+gimeracil+oteracil potassium 8.7+2.5+8.5 mg/kg/day or tegafur+uracil 15.1+33.8 mg/kg/day, oral once a day for 9 days; 12 days after grouping
Method: as §1

[6] = Body weight change as parameter of whole-body toxicity (Example 1); conditions: folinic acid 20.0 mg/kg/day (given as calcium folinate), alone or with tegafur+gimeracil+oteracil potassium 8.3+2.4+8.1 mg/kg/day or tegafur+uracil 20.0+44.8 mg/kg/day, oral once a day for 9 days; 10 days after beginning of administration
Source text: A cubic fragment measuring about 2 mm in diameter of the human colon cancer cell line KM20C was subcutaneously implanted on the backs of male nude mice BALB/c-nu/nu. When the average tumor volume (=major axis (mm)×minor axis (mm)^2) reached about 200 mm^3, the mice were divided into groups.
The following preparations each dissolved or suspended in a 0.5% hydroxypropylmethyl cellulose (HPMC) solution were orally administered to the mice once a day in amounts as shown in Table 1 for 9 consecutive days from the day after grouping: calcium folinate; a tegafur/gimeracil/oteracil potassium combined drug (molar ratio of tegafur:gimeracil:oteracil potassium=1:0.4:1); a combined drug containing the tegafur/gimeracil/oteracil potassium combined drug described above and calcium folinate; a tegafur/uracil combined drug (molar ratio of tegafur:uracil=1:4); and a combined drug containing the tegafur/uracil combined drug described above and calcium folinate.
(§2) The body weight change was calculated by subtracting the body weight of mice 10 days after the beginning of administration from the body weight of mice upon grouping and used as a parameter of whole-body toxicity of the pharmaceutical preparation.

[7] = Body weight change as parameter of whole-body toxicity (Example 2); conditions: folinic acid 40.0 mg/kg/day (given as calcium folinate), alone or with tegafur+gimeracil+oteracil potassium 8.7+2.5+8.5 mg/kg/day or tegafur+uracil 15.1+33.8 mg/kg/day, oral once a day for 9 days; 10 days after beginning of administration
Source text: A cubic fragment measuring about 2 mm in diameter of the human colon cancer cell line Colon 38 was subcutaneously implanted on the backs of male mice C57BL/6. When the average tumor volume (=major axis (mm)×minor axis (mm)^2) reached about 150 mm^3, the mice were divided into groups.
The following preparations each dissolved or suspended in a 0.5% hydroxypropylmethyl cellulose (HPMC) solution were orally administered to the mice once a day in amounts as shown in Table 2 for 9 consecutive days from the day after grouping: calcium folinate; a tegafur/gimeracil/oteracil potassium combined drug (molar ratio of tegafur:gimeracil:oteracil potassium=1:0.4:1); a combined drug containing the tegafur/gimeracil/oteracil potassium combined drug described above and calcium folinate; a tegafur/uracil combined drug (molar ratio of tegafur:uracil=1:4); and a combined drug containing the tegafur/uracil combined drug described above and calcium folinate.
as §2

5-FU degradation = conditions: compared with uracil; cited from earlier work

SMILES	enhancement of the antitumor effect of the tegafur/gimeracil/oteracil potassium combined drug ([1]; calcium folinate at the dose of 2.5 mg/kg/day)	enhancement of the antitumor effect of the tegafur/gimeracil/oteracil potassium combined drug ([1]; calcium folinate at the dose of 5 mg/kg/day)	Relative tumor volume (Mean ± SD) ([1]; folinic acid 20.0 mg/kg/day (as calcium folinate), alone or with tegafur+gimeracil+oteracil potassium 5.7+1.7+5.6 mg/kg/day, oral once a day for 14 days, 15 days after grouping)	Tumor growth inhibition ratio (%) ([1]; folinic acid 20.0 mg/kg/day (as calcium folinate), alone or with tegafur+gimeracil+oteracil potassium 5.7+1.7+5.6 mg/kg/day, oral once a day for 14 days, 15 days after grouping, vs control group)	Relative tumor volume (Mean ± SD) [2]	Tumor growth inhibition ratio (%) ([2]; vs control group)	Body weight change [3] [g]	Tumor growth inhibition ratio (%) [4] [%]	Relative tumor volume (Mean ± SD) [5]	Body weight change [6] [g]	Body weight change [7] [g]	5-FU degradation inhibitory effect relative to that of uracil (5-FU degradation)
Nc1nc(=O)c2c([nH]1)NCC(CNc1ccc(C(=O)N[C@@H](CCC(=O)O)C(=O)O)cc1)N2C=O (mixture of isomers) [folinic acid]	some enhancement	clear enhancement	4.50 ± 1.25 ^	5.4	2.24	6.1	-0.6	7.5	8.78	-0.8	0.7	
Oc1cc(O)c(Cl)cn1 [gimeracil, 2,4-dihydroxy-5-chloropyridine]												about 200 times
